# Data published in ChEMBL document CHEMBL3507680, “University of Dundee, Gates Library screen for HepG2 cell viability”.
# Experiment: Human HepG2 cell viability assay in 384 well format
# Format: toxicity, cell-based
# Set-up: dose 125 nL, time 70.5 hour; cytotoxicity at 70.5 h: concentration not given beside the values
# Settings: HepG2 cells, read-out: Inhibition
row,SMILES,cytotoxicity at 70.5 h [%]
1,Cc1nccc([C@H]2C[C@@H]3CCN(C(=O)c4c(C)noc4C)C[C@H]3O2)n1,7.48
2,O=C1CC2(CCN(Cc3ccoc3)C2)CN1c1cncnc1 (stereo not given),-4.55
3,CN(C)C1COC2(CCN(Cc3ccncc3)CC2)C1 (stereo not given),-7.75
4,CC(=O)N1CCC2(CCCN(C(=O)c3ccc(Cl)c(C(F)(F)F)c3)C2)C1 (stereo not given),-14.2
5,CCOCC1CN(c2ncccn2)Cc2cnn(CC3CCOCC3)c21 (stereo not given),9.85
6,Cc1ccc(CNC(=O)C2=NOC3(CCCNC3)C2)cc1 (stereo not given),-13.2
7,O=C(NCC1Cn2nnc(-c3ccoc3)c2CO1)c1ccc[nH]1 (stereo not given),-9.78
8,O=C(c1ccccn1)N1C[C@@H](OCc2cccnc2)[C@H]2OCCC[C@@H]21,9.73
9,Cc1nnn2c1COCC(CNC(=O)c1ccc[nH]1)C2 (stereo not given),7.03
10,Cc1nc(CN2CCO[C@@H]3CN(C(=O)CC4CC4)CC[C@@H]3C2)cs1,-13.3
11,CC(C)NC(=O)N1CCC2(CC(=O)N(c3ccccc3)C2)C1 (stereo not given),17.9
12,Cc1nc([C@@H]2C[C@@H]3CCN(C(=O)c4ccsc4)C[C@H]3O2)no1,-4.84
13,O=C(NCC1CC1)C1=NOC2(CCN(S(=O)(=O)c3ccc(F)cc3)C2)C1 (stereo not given),-0.024
14,Cc1nc([C@@H]2C[C@@H]3CCN(C(=O)Cc4cccs4)C[C@H]3O2)no1,-11.4
15,CC(C)CNC(=O)[C@H]1C[C@@H]2CN(C(=O)NCCc3ccccc3)C[C@H]1O2,-10.9
16,CC(C)NC(=O)[C@H]1C[C@@H]2CN(C(=O)NCCc3ccccc3)C[C@H]1O2,8.95
17,COc1cccc(N2CC3(CCN(C(=O)NC(C)C)C3)CC2=O)c1 (stereo not given),-7.02
18,CCS(=O)(=O)N1CCc2c(cnc(-c3cccnc3)c2C(=O)O)C1,10.1
19,O=C(NCC1CC1)[C@H]1C[C@@H]2CN(C(=O)NCc3ccccc3)C[C@H]1O2,11.4
20,CCOCC1CN(C(=O)Cc2ccccn2)Cc2cn(CC)nc21 (stereo not given),-8.43
21,Cc1noc([C@H]2C[C@H]3CN(C(=O)Cc4ccsc4)CC[C@H]3O2)n1,-9.17
22,CCOCC1CN(C(=O)Cc2ccccn2)Cc2cn(C)nc21 (stereo not given),-10.7
23,O=C(c1cnccn1)N1C[C@@H]2CN(Cc3cccnc3)CCO[C@@H]2C1,18.1
24,Cn1cccc1C(=O)N1CCc2onc(Cn3cccn3)c2C1,-5.3
25,c1cnc(N2CCOCC3(CCCN(c4nncs4)C3)C2)cn1 (stereo not given),-3.82
26,Cc1ccc(-n2cc(CN3CCOCC3)c(-c3cccc(C)c3)n2)cc1,-2.44
27,O=C(N[C@@H]1C[C@H]2CC[C@@H]1C2)C1(Oc2ccc(Cl)cc2)CCNCC1,-2.25

row,SMILES,cytotoxicity at 70.5 h [%]
1,CC(=O)NCc1nc(CCOc2ccc(Cl)cc2)no1,-4.84
2,COCC(O)CNC(=O)c1coc(COc2cccc(F)c2)n1 (stereo not given),-4.43
3,CCCc1nnc(NCCn2nc(C)c(Cl)c2C)o1,-7.4
4,Cc1cccnc1CN1CCN(C(=O)[C@@]23CNC[C@@H]2CN(C)C3)CC1,-8.36
5,CN1CCC(N(C)CCC(=O)N2CCC(CCc3ccccc3)CC2)C1 (stereo not given),26.3
6,NC(=O)[C@@H]1CCCN1C(=O)c1cn(C/C=C/c2ccccc2)nn1,-14
7,O=c1[nH]c(COc2ccc(Cl)cc2)nc2c1CCNC2,16.3
8,CC[C@H]1CN(C(=O)c2ccc(-n3cnnc3)nc2)CC[C@@]1(C)O,36
9,CCCOc1ccc2ccccc2c1CN1CC[C@@]2(O)CCNC[C@H]2C1,-4.34
10,COc1ccc(C(C(=O)O)N2CCC(O)(c3cccnc3)CC2)cc1F (stereo not given),6.42
11,COCCNC(=O)CCC1CCN(Cc2cccc(SC)c2)CC1,5.26
12,CN(Cc1nccs1)c1nccc(N2CCN[C@H]3CS(=O)(=O)C[C@H]32)n1,2.95
13,COc1ccccc1CNC(=O)CN(C)C(C)c1nccs1 (stereo not given),-1.57
14,CCC[C@@H]1CN(Cc2nnc(-c3cccnc3)o2)C[C@H]1NC(C)=O,-7.21
15,COCCc1ncc(-c2c(C#N)c(N)nc3c2CCc2[nH]ccc2-3)cn1,-3.18
16,Cc1nc(O)cc(C2CCN(C(=O)CN(C)c3ccccc3)CC2)n1,-3.24
17,Cc1ccc(SCCN(C)C(=O)c2cn([C@H]3CC[C@@H](N)CC3)nn2)cc1,16.5
18,CN(C)S(=O)(=O)N1CC[C@]2(O)CCN(c3nc4ccccc4s3)C[C@@H]2C1,3.99
19,Cc1nc(N2CCC3(CCCN(C(C)C)C3=O)C2)c2sccc2n1 (stereo not given),-13.4
20,CCc1ccc(CN2CCN(c3ccc(Cl)nn3)CC2)nc1,-4.56
21,Cc1ccc(F)cc1S(=O)(=O)N1C[C@@H](C)[C@@](C)(O)C1,14.7
22,COc1cccc(S(=O)(=O)N2CCCCC2CCN2CCCC2=O)c1 (stereo not given),-7.04
23,Cc1cc(NCc2nnc3n2CCCCC3)n2nc(C)c(C)c2n1,-5.75
24,Cc1cnc(C)c(N2CCCC(CO)(Cc3cccc(Cl)c3)C2)n1 (stereo not given),21.2
25,CCCN1CCc2[nH]cnc2C12CCN(C(=O)Cn1ccnc1C)CC2,-6.5
26,COc1ccc(CN2C[C@@H](CN(C)CCO)[C@@H](CO)C2)cc1Cl,-7.1
27,COCCN(C)CCN1CC2(CCN(C3CCOC3)CC2)OC1=O (stereo not given),-0.423

row,SMILES,cytotoxicity at 70.5 h [%]
1,CC(=O)N1CCc2[nH]cnc2C12CCN(C(=O)Cc1ccccn1)CC2,-14.9
2,O=C(O)C1CC2(CCN(c3nccc4ccccc34)CC2)CN1 (stereo not given),9.49
3,CCC(CO)N(Cc1cccnc1)C(=O)c1ccoc1C (stereo not given),0.679
4,COCCCN1CCCC(c2nccn2CC2CCC2)C1 (stereo not given),-15
5,c1ccc(-c2cc(CN3C[C@@H]4CC[C@H](C3)N(CC3CC3)C4)on2)cc1,-6.85
6,CCCn1c(C)c(CC(=O)N(C)CC(=O)OC)c2c1CC(C)(C)CC2=O,-3.68
7,CC(C)=CCN1CCN(Cc2cccc(C)n2)CC1CCO (stereo not given),6.26
8,CCc1[nH]c2ccc(CNc3cncc(C(=O)N(C)C)n3)cc2c1C,-0.482
9,CSc1ccc(CN(C(=O)c2cc[nH]n2)C2CC2)cc1,-7.21
10,CCn1cc(CN2CCCC2c2nc(-c3ccccc3)no2)cc1C#N (stereo not given),2.37
11,COCCN1C(=O)[C@H]2CC[C@@H]1CN(S(=O)(=O)c1cccc(Cl)c1)C2,17.8
12,N[C@H]1c2ccccc2C[C@@H]1NC(=O)C1CCN(Cc2ccco2)CC1,-11.4
13,O=C(C1NCCc2[nH]cnc21)N1CCC2(C=Cc3ccccc32)CC1 (stereo not given),-7.07
14,c1cncc(-c2noc(CNc3ncnc4c3CCNCC4)n2)c1,-5.95
15,Cc1ccc(C(=O)NCC2CCN(Cc3ccccc3C#N)C2)cn1 (stereo not given),-5.59
16,CCc1ccc(CN2CCN(Cc3ncc[nH]3)[C@H]3CS(=O)(=O)C[C@H]32)nc1,-6.57
17,c1ccc(-c2cnn3cc(CN4CCC5(CCO5)CC4)cnc23)cc1,1.13
18,Cc1nc[nH]c1CN1CCCN(c2nc3ccccc3s2)CC1,-2.7
19,Cc1ccc(C)c2c(O)cc(CN3CCC(=O)NCC3C)nc12 (stereo not given),-8.42
20,O=C(NCc1ccc(Cl)cc1)C1=NOC2(CCNC2)C1 (stereo not given),-9.72
21,O=C(NCc1ccccc1)C1=NOC2(CCNC2)C1 (stereo not given),-11
22,CCOCC1CN(Cc2ccc(F)cc2)Cc2nn(C)cc21 (stereo not given),-11.9
23,Cn1cc(N2CC3(COCCN(Cc4nccs4)C3)OCC2=O)cn1 (stereo not given),-9.93
24,COCCC(=O)N1CC[C@@H](N2CCOCC2)[C@@H]1Cc1ccccc1,-8.94
25,O=C(c1cnccn1)N1C[C@@H](OCc2cccnc2)[C@H]2OCCC[C@H]21,8.16
26,COCC(=O)N1C[C@@H](OCc2cccnc2)[C@H]2OCCC[C@@H]21,14.3
27,c1csc(CN2CCc3nnc(COc4cncnc4)n3CC2)c1,-6.3

row,SMILES,cytotoxicity at 70.5 h [%]
1,N#Cc1cccc(N2CC3(CCN(C(=O)c4ccncc4)C3)CC2=O)c1 (stereo not given),-5.96
2,CCOCC1CC2(CCN(C(=O)c3ccc4ccccc4n3)CC2)CO1 (stereo not given),-13.3
3,O=C(c1ccccn1)N1CCC2(CC1)COC(COCC1CC1)C2 (stereo not given),-8.98
4,CC(C)CCN1C[C@H]2C[C@H](C(=O)NCc3ccccc3)[C@@H](C1)O2,5.49
5,CN(C)CCO[C@H]1CN(C(=O)c2cccs2)[C@@H]2COC[C@H]12,20.9
6,Cn1cccc1C(=O)N1CCC2(CC1)COC(COc1ccccn1)C2 (stereo not given),-6.63
7,C1CN(CC2CC2)C(COCC2CC2)c2nnn(CC3CC3)c21 (stereo not given),-12.9
8,Cn1cc(CN2CCCC23CCN(C(=O)c2ccsc2)CC3)cn1,-5.87
9,Cn1cc(CN2CCCC23CCN(C(=O)c2ccccc2)CC3)cn1,-11.9
10,Cn1nnc2c1C(COCC1CC1)CN(Cc1ccoc1)C2 (stereo not given),-9.19
11,CCOCC1CN(Cc2cccnc2)Cc2nn(C)cc21 (stereo not given),-11.3
12,Cc1nnc(N2CC[C@H]3O[C@H](C(=O)NCc4ccccn4)CC[C@H]32)s1,-6.62
13,O=C1NC2(CCN(Cc3ccoc3)CC2)CC1c1ccncc1 (stereo not given),11
14,CCn1ncc2c1C(COCC1CC1)CN(c1ccncn1)C2 (stereo not given),-8.04
15,CN(Cc1ccco1)[C@@H]1CN(Cc2nccs2)C[C@@H]2CCCO[C@@H]21,-5.05
16,CN(Cc1cncnc1)[C@@H]1CN(Cc2ccco2)C[C@@H]2CCCO[C@@H]21,-14.6
17,CCOCC1CN(c2ccncn2)Cc2cnn(CC)c21 (stereo not given),-8.6
18,O=C1NC2(CCN(Cc3ccsc3)CC2)CC1c1ccncc1 (stereo not given),-9.73
19,COCC1CN(c2ccncn2)Cc2cnn(CC3CCCC3)c21 (stereo not given),-11.3
20,N#Cc1cccc(CN2CCC3(CC2)CC(c2ccncc2)C(=O)N3)c1 (stereo not given),-0.0024
21,Cc1nc(CN2CCO[C@@H]3CN(Cc4cccs4)C[C@@H]3C2)cs1,-4.54
22,c1csc(CN2CCOCC3(CCN(C4CCOCC4)C3)C2)c1 (stereo not given),-16.8
23,O=C(O)c1c(-c2cccnc2)ncc2c1CCN(Cc1ccccn1)C2,-8.57
24,CN(Cc1ccco1)[C@@H]1CN(Cc2ccccn2)C[C@@H]2CCCO[C@@H]21,-9.21
